Experimental data: patent publication US7829533B2, “Cyclosporin analog formulations” (Isotechnika Inc., priority 2001, dated 2010)

Assay: Toxicokinetic study in the rabbit model (serum creatinine, hematology, organ examination)
Description: On Days 1 and 7, blood samples were collected prior to drug administration and at 0.5, 1, 2, 4, 8, 12, 18, and 24 hours post-dose to generate a pharmacokinetic profile. Other evaluated parameters included clinical observations, body weight, food consumption, hematology, clinical chemistry, gross pathology, and histopathological examination of selected tissues/organs.

In the case of `C=C/C=C/C[C@@H](C)[C@@H](O)[C@H]1C(=O)N[C@@H](CC)C(=O)N(C)CC(=O)N(C)[C@@H](CC(C)C)C(=O)N[C@@H](C(C)C)C(=O)N(C)[C@@H](CC(C)C)C(=O)N[C@@H](C)C(=O)N[C@H](C)C(=O)N(C)[C@@H](CC(C)C)C(=O)N(C)[C@@H](CC(C)C)C(=O)N(C)[C@@H](C(C)C)C(=O)N1C` [ISATX247], the “Examination of organs: spermatogenesis” value (male rabbits, 15 mg/kg) is reported as “decrease in spermatogenesis”, the Examination of organs (rabbits, 5 mg/kg) is reported as “no significant abnormalities” and the Examination of organs (rabbits, 10 mg/kg) is reported as “no significant abnormalities”. For the same molecule, the “Interstitial fibrosis in the kidneys” value (rabbits, 10 mg/kg cyclosporine A, 5 or 10 mg/kg ISATx247) was “no evidence of interstitial fibrosis”, the “Increase in serum creatinine levels” value (rabbits, 15 mg/kg/day) was “did not result in any significant increase” and the “Changes in hematological parameters” value (rabbits, 30-day study) was “No significant changes”.
